Assay results taken from US9302999B2, “Substituted triazoles as herbicides” (E. I. DU PONT DE NEMOURS AND COMPANY, priority 2012, dated 2016).

Key:
Format in all cases: in vivo
[1] = system: velvetleaf (Abutilon theophrasti); experiment: Test A pre-/postemergence: velvetleaf
Summary of the method: (§1)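 Compounds, formulated with surfactant in non-phytotoxic solvent, were applied as a directed soil spray preemergence and as postemergence sprays to 2–10 cm, one- to two-leaf seedlings grown in loam soil blended with sand; visual injury, 0–100, assessed ~10 days post-treatment against untreated controls.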

[2] = system: barnyardgrass (Echinochloa crus-galli); experiment: Test B flooded paddy: barnyardgrass; settings: Flood; 125 g ai/ha; applied to paddy water at 2-leaf stage; visually evaluated after 13 to 15 days
Summary of the method: (§2)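 Greenhouse assay lasting 13 to 15 days. Treatment was into water flooding pots 3 cm deep, at the 2-leaf stage, with that level sustained afterwards. Scores compare treated with control plants visually, 100 denoting complete control and 0 no effect; a dash marks no test result.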

[3] = system: corn (Zea mays); experiment: Test A pre-/postemergence: corn
Summary of the method: as §1

[4] = system: crabgrass, large (large crabgrass, Digitaria sanguinalis); experiment: Test A pre-/postemergence: crabgrass, large
Summary of the method: as §1

[5] = system: sedge, umbrella (small-flower umbrella sedge Cyperus difformis); experiment: Test B flooded paddy: sedge, umbrella; settings: Flood; 125 g ai/ha; applied to paddy water at 2-leaf stage; visually evaluated after 13 to 15 days
Summary of the method: as §2

[6] = system: barnyardgrass (Echinochloa crus-galli); experiment: Test A pre-/postemergence: barnyardgrass
Summary of the method: as §1

[7] = system: wheat (Triticum aestivum); experiment: Test A pre-/postemergence: wheat
Summary of the method: as §1

[8] = system: pigweed (Amaranthus retroflexus); experiment: Test A pre-/postemergence: pigweed
Summary of the method: as §1

[9] = system: morningglory (Ipomoea spp.); experiment: Test A pre-/postemergence: morningglory
Summary of the method: as §1

[10] = system: foxtail, giant (giant foxtail, Setaria faberii); experiment: Test A pre-/postemergence: foxtail, giant
Summary of the method: as §1

[11] = system: rice (Oryza sativa); experiment: Test B flooded paddy: rice; settings: Flood; 125 g ai/ha; applied to paddy water at 2-leaf stage; visually evaluated after 13 to 15 days
Summary of the method: as §2

[12] = system: ducksalad (Heteranthera limosa); experiment: Test B flooded paddy: ducksalad; settings: Flood; 125 g ai/ha; applied to paddy water at 2-leaf stage; visually evaluated after 13 to 15 days
Summary of the method: as §2

[13] = Postemergence, 125 g ai/ha, 0 to 100 scale, 0 is no effect, 100 is complete control
[14] = Postemergence, 500 g ai/ha, 0 to 100 scale, 0 is no effect, 100 is complete control
[15] = Preemergence, 125 g ai/ha, 0 to 100 scale where 0 is no effect and 100 is complete control
[16] = Preemergence, 500 g ai/ha, 0 to 100 scale (0 no effect, 100 complete control)

Row | SMILES | Plant response rating, Velvetleaf [1, 13] | Velvetleaf plant response rating [1, 14] | Plant response rating, Velvetleaf [1, 15] | Plant response rating, Velvetleaf [1, 16] | Plant response rating, Barnyardgrass (0 to 100 scale, 0 is no effect, 100 is complete control) [2] | Plant response rating, Corn [3, 13] | Corn plant response rating [3, 14] | Plant response rating, Corn [3, 15] | Plant response rating, Corn [3, 16] | Plant response rating, Crabgrass, Large [4, 13] | Crabgrass, Large plant response rating [4, 14] | Plant response rating, Crabgrass, Large [4, 15] | Plant response rating, Crabgrass, Large [4, 16] | Plant response rating, Sedge, Umbrella (0 to 100 scale, 0 is no effect, 100 is complete control) [5] | Plant response rating, Barnyardgrass [6, 13] | Barnyardgrass plant response rating [6, 14] | Plant response rating, Barnyardgrass [6, 15] | Plant response rating, Barnyardgrass [6, 16] | Plant response rating, Wheat [7, 13] | Wheat plant response rating [7, 14] | further results
1 | CC(C)(C)c1nn(-c2ccc(F)cc2)nc1C(=O)c1ccnc(C(F)(F)F)c1 [Compound 175] | 0 | 0 | 0 | 0 | 0 | 0 | 0 | 0 | 0 | 0 | 0 | 0 | 0 | 0 | 0 | 0 | 0 | 0 | 0 | 0 | Plant response rating, Wheat [7, 15]: 0; Plant response rating, Wheat [7, 16]: 0; Plant response rating, Pigweed [8, 13]: 0; Pigweed plant response rating [8, 14]: 0; Plant response rating, Pigweed [8, 15]: 0; Plant response rating, Pigweed [8, 16]: 0; Plant response rating, Morningglory [9, 13]: 0; Morningglory plant response rating [9, 14]: 0; Plant response rating, Morningglory [9, 15]: 0; Plant response rating, Morningglory [9, 16]: 0; Plant response rating, Foxtail, Giant [10, 13]: 0; Foxtail, Giant plant response rating [10, 14]: 0; Plant response rating, Foxtail, Giant [10, 15]: 0; Plant response rating, Foxtail, Giant [10, 16]: 0; Plant response rating, Rice (0 to 100 scale, 0 is no effect, 100 is complete control) [11]: 0; Plant response rating, Ducksalad (0 to 100 scale, 0 is no effect, 100 is complete control) [12]: 0
2 | CCc1nn(-c2ccc(F)cc2F)nc1Oc1ccnc(C(F)(F)F)c1 [Compound 178] | 60 | 100 | 10 | 60 | 0 | 20 | 30 | 0 | 10 | 90 | 90 | 90 | 100 | 60 | 30 | 80 | 20 | 100 | 20 | 40 | Plant response rating, Wheat [7, 15]: 0; Plant response rating, Wheat [7, 16]: 10; Plant response rating, Pigweed [8, 13]: 100; Pigweed plant response rating [8, 14]: 100; Plant response rating, Pigweed [8, 15]: 100; Plant response rating, Pigweed [8, 16]: 100; Plant response rating, Morningglory [9, 13]: 90; Morningglory plant response rating [9, 14]: 100; Plant response rating, Morningglory [9, 15]: 0; Plant response rating, Morningglory [9, 16]: 60; Plant response rating, Foxtail, Giant [10, 13]: 60; Foxtail, Giant plant response rating [10, 14]: 90; Plant response rating, Foxtail, Giant [10, 15]: 90; Plant response rating, Foxtail, Giant [10, 16]: 100; Plant response rating, Rice (0 to 100 scale, 0 is no effect, 100 is complete control) [11]: 20; Plant response rating, Ducksalad (0 to 100 scale, 0 is no effect, 100 is complete control) [12]: 30
3 | CC(C)Cc1nn(-c2ccc(C(F)(F)F)cc2)nc1Oc1ccnc(C(F)(F)F)c1 [Compound 186] | 0 | 20 | 0 | 0 | 0 | 10 | 20 | 0 | 0 | 0 | 0 | 0 | 0 | 0 | 0 | 0 | 0 | 0 | 0 | 0 | Plant response rating, Wheat [7, 15]: 0; Plant response rating, Wheat [7, 16]: 0; Plant response rating, Pigweed [8, 13]: 20; Pigweed plant response rating [8, 14]: 60; Plant response rating, Pigweed [8, 15]: 0; Plant response rating, Pigweed [8, 16]: 0; Plant response rating, Morningglory [9, 13]: 0; Morningglory plant response rating [9, 14]: 10; Plant response rating, Morningglory [9, 15]: 0; Plant response rating, Morningglory [9, 16]: 0; Plant response rating, Foxtail, Giant [10, 13]: 0; Foxtail, Giant plant response rating [10, 14]: 0; Plant response rating, Foxtail, Giant [10, 15]: 0; Plant response rating, Foxtail, Giant [10, 16]: 0; Plant response rating, Rice (0 to 100 scale, 0 is no effect, 100 is complete control) [11]: 0; Plant response rating, Ducksalad (0 to 100 scale, 0 is no effect, 100 is complete control) [12]: 0
4 | CC(C)Cc1nn(-c2ccc(C(F)(F)F)cc2)nc1Oc1ccnc(C(F)F)c1 [Compound 187] | 0 | 0 | 0 | 0 | 0 | 0 | 0 | 0 | 0 | 0 | 0 | 0 | 0 | 0 | 0 | 0 | 0 | 0 | 0 | 0 | Plant response rating, Wheat [7, 15]: 0; Plant response rating, Wheat [7, 16]: 0; Plant response rating, Pigweed [8, 13]: 0; Pigweed plant response rating [8, 14]: 0; Plant response rating, Pigweed [8, 15]: 0; Plant response rating, Pigweed [8, 16]: 0; Plant response rating, Morningglory [9, 13]: 0; Morningglory plant response rating [9, 14]: 0; Plant response rating, Morningglory [9, 15]: 0; Plant response rating, Morningglory [9, 16]: 0; Plant response rating, Foxtail, Giant [10, 13]: 0; Foxtail, Giant plant response rating [10, 14]: 0; Plant response rating, Foxtail, Giant [10, 15]: 0; Plant response rating, Foxtail, Giant [10, 16]: 0; Plant response rating, Rice (0 to 100 scale, 0 is no effect, 100 is complete control) [11]: 0; Plant response rating, Ducksalad (0 to 100 scale, 0 is no effect, 100 is complete control) [12]: 0
